Test results as given in ChEMBL document CHEMBL1121560, “Synthesis and biological activity of 5-fluoro-2'-deoxyuridine 5'-phosphorodiamidates” (J Med Chem, 1980).
Active and inactive are the calls of the source. No cut-off for these calls is given here.

Experiments:
[1] = target: T1, Thymidylate synthase (Lactobacillus casei) (UniProt P00469); assay: Compound was tested for its inhibition against Thymidylate synthase up to concentration of 1 mM; IA means inactive; conditions: Lacticaseibacillus casei
T1 sequence (whole entry): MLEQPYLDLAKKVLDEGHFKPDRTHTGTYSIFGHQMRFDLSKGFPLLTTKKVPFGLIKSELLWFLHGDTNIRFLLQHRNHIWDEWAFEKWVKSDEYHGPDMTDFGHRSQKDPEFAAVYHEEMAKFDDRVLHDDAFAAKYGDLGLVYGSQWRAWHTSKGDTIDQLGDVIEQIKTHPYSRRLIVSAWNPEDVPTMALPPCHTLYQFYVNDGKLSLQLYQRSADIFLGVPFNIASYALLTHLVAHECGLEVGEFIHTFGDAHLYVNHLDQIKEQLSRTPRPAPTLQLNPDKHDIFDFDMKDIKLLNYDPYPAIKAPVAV

L5178Y [2] = assay: Comparative inhibition of L5178Y cell growth in vitro (concentration required for 50% inhibition); assay type: functional, cell-based; conditions: Mus musculus
L5178Y [3] = assay: In vitro percent inhibition at 10 e-8 M against L5178Y cell growth after 72 hr (replicate flasks inoculated with 10 e5 cells were treated with the nucleotide); assay type: functional; conditions: Mus musculus
[4] = Half-life for hydrolysis to 5-fluoro-2'-deoxyuridine-5'-phosphate at […] Centigrade; assay type: ADME
[5] = (§1) Half-life for hydrolysis to 5-fluoro-2'-deoxyuridine-5'-phosphate at 100 degree Centigrade; assay type: ADME
L5178Y [6] = assay: as §1; assay type: functional; conditions: Mus musculus
[7] = Half-life for hydrolysis to 5-fluoro-2'-deoxyuridine-5'-phosphate at 65 degree Centigrade; assay type: ADME

Structure (SMILES)	inhibition [1]	IC50 (L5178Y [2]) [nM]	inhibition at 0.01 µM (L5178Y [3]) [%]	half-life [4] [h]	half-life [5] [h]	T1/2 (L5178Y [6]) [h]	half-life [7] [h]
O=c1[nH]c(=O)n([C@H]2C[C@H](O)[C@@H](COP(=O)(O)O)O2)cc1F [5-FLUORODEOXYURIDYLATE]	inactive	1.4	67	–	–	–	–
O=c1[nH]c(=O)n([C@H]2C[C@H](O)[C@@H](CO)O2)cc1F [FLOXURIDINE]	inactive	0.76	–	–	–	–	–
NP(N)(=O)OC[C@H]1O[C@@H](n2cc(F)c(=O)[nH]c2=O)C[C@@H]1O	inactive	2	45	0.25	3.9	–	–
O=c1[nH]c(=O)n([C@H]2C[C@H](O)[C@@H](COP(=O)(N3CCOCC3)N3CCOCC3)O2)cc1F	inactive	–	11	–	–	100	240
